Measured values as given in patent US20100311748A1, “HETEROCYCLIC AMIDES USEFUL FOR THE TREATMENT OF CANCER AND PSORIASIS” (ASTRAZENECA AB, priority 2007, published 2010).

Tested on: Hedgehog pathway
Assay: Hedgehog Pathway Cellular Differentiation Assay (alkaline phosphatase production in C3H10T1/2 cells with Shh ligand)
Format: cell-based
Settings: Mus musculus, C3H 10T1/2, 3 μM compound, Shh ligand conditioned media, 72 h, alkaline phosphatase
In short: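 C3H10T1/2 cells in DMEM/2% FBS with Shh-conditioned medium were treated 72 h with compound, threefold dilutions from 30 μM to 3 nM. After RIPA lysis, alkaline phosphatase was read with pNp (1 mg/mL, diethanolamine pH 9.8) at 30 °C, absorbance 405 nm. Percent inhibition and IC50 came from absorbance.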

SMILES	inhibition at 3 µM
Cc1cc(C)c(-c2cn(C)cn2)cc1NC(=O)c1ccc(OCc2ccccn2)cn1 [Example 113, N-(2,4-dimethyl-5-(1-methyl-1H-imidazol-4-yl)phenyl)-5-(pyridin-2-ylmethoxy)picolinamide]	84.7%
Cc1ccc(-c2ncc[nH]2)cc1NC(=O)c1ccc(OCc2ncccc2O)cc1 [Example 144, N-(5-(1H-imidazol-2-yl)-2-methylphenyl)-4-((3-hydroxypyridin-2-yl)methoxy)benzamide]	8.8%
Cc1cc(-c2nc3ccccc3[nH]2)ccc1NC(=O)c1ccc(OCc2ccccn2)cc1 [Example 31, N-[4-(1H-benzoimidazol-2-yl)-2-methyl-phenyl]-4-(pyridin-2-ylmethoxy)benzamide]	27.9%
Cc1ccc(-c2ncc[nH]2)cc1NC(=O)c1ccc(/C=C/c2ccccn2)cc1 [Example 109, N-[5-(1H-imidazol-2-yl)-2-methylphenyl]-4-[(E)-2-pyridin-2-ylethenyl]benzamide]	91.3%
Cc1cc(Cl)c(-c2ncc[nH]2)cc1NC(=O)c1ccc(OCc2ccccn2)cc1 [Example 76, N-[4-chloro-5-(1H-imidazol-2-yl)-2-methylphenyl]-4-(pyridin-2-ylmethoxy)benzamide]	77.6%
Cc1ccc(-c2ncc[nH]2)cc1NC(=O)c1ccc(OCc2ccccc2C#N)cc1 [Example 46, 4-[(2-cyanophenyl)methoxy]-N-[5-(1H-imidazol-2-yl)-2-methyl-phenyl]benzamide]	81.9%
Cc1ccc(-c2ncc[nH]2)cc1NC(=O)c1ccc(C#Cc2ccccn2)cc1 [Example 107, N-[5-(1H-imidazol-2-yl)-2-methylphenyl]-4-(pyridin-2-ylethynyl)benzamide]	92.3%
Cc1ccc(-c2c[nH]cn2)cc1NC(=O)c1ccc(OCc2ccccn2)cc1 [Example 1, N-[5-(1H-imidazol-4-yl)-2-methyl-phenyl]-4-(pyridin-2-ylmethoxy)benzamide]	64.9%
Cc1ccc(-c2nc3cc([N+](=O)[O-])ccc3[nH]2)cc1NC(=O)c1ccc(OCc2ccccn2)cc1 [Example 14, N-[2-methyl-5-(5-nitro-1H-benzoimidazol-2-yl)phenyl]-4-(pyridin-2-ylmethoxy)benzamide]	79.2%
Cc1ccc(-c2nc[nH]c2C)cc1NC(=O)c1ccc(OCc2ccccc2C#N)cc1 [Example 54, 4-[(2-cyanophenyl)methoxy]-N-[2-methyl-5-(5-methyl-1H-imidazol-4-yl)phenyl]benzamide]	77.5%
Cc1ccc(-c2ncc(C(F)(F)F)[nH]2)cc1NC(=O)c1ccc(OCc2ccccn2)cc1 [Example 28, N-{2-methyl-5-[5-(trifluoromethyl)-1H-imidazol-2-yl]phenyl}-4-(pyridin-2-ylmethoxy)benzamide]	91.9%
Cc1cc(C)c(-c2ncc[nH]2)cc1NC(=O)c1ccc(OCc2ccccn2)cc1 [Example 67, N-[5-(1H-imidazol-2-yl)-2,4-dimethylphenyl]-4-(pyridin-2-ylmethoxy)benzamide]	77.1%
Cc1ccc(-c2ncc[nH]2)cc1NC(=O)c1ccc(OCc2cc3c(cc2Cl)OCO3)cc1 [Example 57, 4-[(6-chloro-1,3-benzodioxol-5-yl)methoxy]-N-[5-(1H-imidazol-2-yl)-2-methylphenyl]benzamide]	73.6%
Cc1ccc(-c2cnc(N)cn2)cc1NC(=O)c1ccc(OCc2ccccn2)cc1 [Example 10, N-[5-(5-aminopyrazin-2-yl)-2-methyl-phenyl]-4-(pyridin-2-ylmethoxy)benzamide]	63.5%
Cc1nnc(-c2ccc(C)c(NC(=O)c3ccc(OCc4ccccn4)cc3)c2)o1 [Example 38, N-(2-methyl-5-(5-methyl-1,3,4-oxadiazol-2-yl)phenyl)-4-(pyridin-2-ylmethoxy)benzamide]	24.2%
Cc1ccc(-c2ncc[nH]2)cc1NC(=O)c1cccc(N(C)C)c1 [Example 148, 3-dimethylamino-N-[5-(1H-imidazol-2-yl)-2-methyl-phenyl]benzamide]	9.1%
Cc1ccc(-c2ncc[nH]2)cc1NC(=O)c1ccc(OCc2cccc(N3CCN(C)CC3)n2)cc1 [Example 128, N-(5-(1H-imidazol-2-yl)-2-methylphenyl)-4-((6-(4-methylpiperazin-1-yl)pyridin-2-yl)methoxy)benzamide]	81.5%
O=C(Nc1cc(-c2ncc[nH]2)ccc1Cl)c1ccc(OCc2ccccn2)cc1 [Example 105, N-[2-chloro-5-(1H-imidazol-2-yl)phenyl]-4-(pyridin-2-ylmethoxy)benzamide]	82.1%
Cc1ccc(-c2ncc[nH]2)cc1NC(=O)c1ccc(OCc2cccc(Br)n2)cc1 [Example 119, N-(5-(1H-imidazol-2-yl)-2-methylphenyl)-4-((6-bromopyridin-2-yl)methoxy)benzamide]	92.4%
Cc1ccc(-c2ncc[nH]2)cc1NC(=O)c1ccc(CCc2ccccn2)cc1 [Example 108, N-[5-(1H-imidazol-2-yl)-2-methylphenyl]-4-(2-pyridin-2-ylethyl)benzamide]	92.4%

SMILES	inhibition at 3 µM
Cc1cc(F)c(-c2ncc[nH]2)cc1NC(=O)c1ccc(OCc2ccccn2)cc1 [Example 102, N-[4-fluoro-5-(1H-imidazol-2-yl)-2-methylphenyl]-4-(pyridin-2-ylmethoxy)benzamide]	87.1%
Cc1cc(C)c(-c2cnc(C)n2C)cc1NC(=O)c1ccc(OCc2ccccn2)cc1 [Example 70, N-[5-(1,2-dimethyl-1H-imidazol-5-yl)-2,4-dimethylphenyl]-4-(pyridin-2-ylmethoxy)benzamide]	78.1%
Cc1ccc(-c2ncc(C)n2C)cc1NC(=O)c1ccc(OCc2ccccc2C#N)cc1 [Example 49, 4-[(2-cyanophenyl)methoxy]-N-[5-(1,5-dimethylimidazol-2-yl)-2-methyl-phenyl]benzamide]	82%
Cc1nc(C)c(-c2ccc(C)c(NC(=O)c3ccc(OCc4ccccn4)cc3)c2)s1 [Example 32, N-[5-(2,4-dimethyl1,3-thiazol-5-yl)-2-methyl-phenyl]-4-(pyridin-2-ylmethoxy)benzamide]	54.1%
COc1ccc(COc2ccc(C(=O)Nc3cc(-c4ncc[nH]4)ccc3C)cc2)nc1 [Example 130, N-(5-(1H-imidazol-2-yl)-2-methylphenyl)-4-((5-methoxypyridin-2-yl)methoxy)benzamide]	91.9%
Cc1ccc(-c2ncc[nH]2)cc1NC(=O)c1ccc(OCc2ccccc2)cc1 [Example 58, N-(5-(1H-imidazol-2-yl)-2-methylphenyl)-4-(benzyloxy)benzamide]	86.2%
Cc1ccc(-c2ncc[nH]2)cc1NC(=O)c1ccc(OCc2cc(OCCO)ccn2)cc1 [Example 132, N-(5-(1H-imidazol-2-yl)-2-methylphenyl)-4-((4-(2-hydroxyethoxy)pyridin-2-yl)methoxy)benzamide]	77.1%
Cc1ccc(-c2ncc[nH]2)cc1NC(=O)c1ccc(OCc2ccc(CO)cc2)cc1 [Example 62, 4-{[4-(hydroxymethyl)benzyl]oxy}-N-[5-(1H-imidazol-2-yl)-2-methylphenyl]benzamide]	76.9%
Cc1ccc(-c2nccn2C)cc1NC(=O)c1ccc(OCc2cc(F)ccc2C#N)cc1 [Example 101, 4-[(2-cyano-5-fluorobenzyl)oxy]-N-[2-methyl-5-(1-methyl-1H-imidazol-2-yl)phenyl]benzamide]	83.5%
Cc1ccc(-c2ncc[nH]2)cc1NC(=O)c1ccc(OCc2cccc(N(C)C)n2)cc1 [Example 125, N-(5-(1H-imidazol-2-yl)-2-methylphenyl)-4-((6-(dimethylamino)pyridin-2-yl)methoxy)benzamide]	76.7%
Cc1cc(Cl)c(-c2cn(C)c(C)n2)cc1NC(=O)c1ccc(OCc2ccccn2)cc1 [Example 77, N-[4-chloro-5-(1,2-dimethyl-1H-imidazol-4-yl)-2-methylphenyl]-4-(pyridin-2-ylmethoxy)benzamide]	86.1%
COc1cc(COc2ccc(C(=O)Nc3cc(-c4ncc(C)n4C)ccc3C)cc2)cc(OC)c1 [Example 48, 4-[(3,5-dimethoxyphenyl)methoxy]-N-[5-(1,5-dimethylimidazol-2-yl)-2-methyl-phenyl]benzamide]	81.5%
COc1cc(COc2ccc(C(=O)Nc3cc(-c4nccn4C)ccc3C)cc2)cc(OC)c1 [Example 50, 4-[(3,5-dimethoxyphenyl)methoxy]-N-[2-methyl-5-(1-methylimidazol-2-yl)phenyl]benzamide]	80.5%
Cc1ccc(-c2ncc[nH]2)cc1NC(=O)c1ccc(OCc2ccccn2)cn1 [Example 112, N-[5-(1H-imidazol-2-yl)-2-methylphenyl]-5-(pyridin-2-ylmethoxy)pyridine-2-carboxamide]	54.3%
Cc1cn(C)c(-c2ccc(C)c(NC(=O)c3ccc(OCc4cccc(OCCN5CCOCC5)c4)cc3)c2)n1 [Example 66, N-[5-(1,4-dimethyl-1H-imidazol-2-yl)-2-methylphenyl]-4-{[3-(2-morpholin-4-ylethoxy)benzyl]oxy}benzamide]	69.6%
Cc1ccc(-c2cnn(C)c2)cc1NC(=O)c1ccc(OCc2ccccn2)cc1 [Example 33, N-[2-methyl-5-(1-methylpyrazol-4-yl)phenyl]-4-(pyridin-2-ylmethoxy)benzamide]	54.7%
Cc1ccc(-c2ncc[nH]2)cc1NC(=O)c1ccc(OCc2cc(N3CCOCC3)ccn2)cc1 [Example 89, N-[5-(1H-imidazol-2-yl)-2-methylphenyl]-4-[(4-morpholin-4-ylpyridin-2-yl)methoxy]benzamide]	72.7%
Cc1ccc(-c2nccn2C)cc1NC(=O)c1ccc(OCc2ccc(F)cc2C#N)cc1 [Example 100, 4-[(2-cyano-4-fluorobenzyl)oxy]-N-[2-methyl-5-(1-methyl-1H-imidazol-2-yl)phenyl]benzamide]	82.7%
COc1ccccc1COc1ccc(C(=O)Nc2cc(-c3ncc[nH]3)ccc2C)cc1 [Example 63, N-[5-(1H-imidazol-2-yl)-2-methylphenyl]-4-[(2-methoxybenzyl)oxy]benzamide]	79.8%
